Data taken from patent publication US8952024B2, “Herbicidal pyrimidone derivatives” (E I du Pont de Nemours and Company, priority 2009, dated 2015).

Experiments:
Assay type in all cases: in vivo
[1] = tested on: winter barley (Hordeum vulgare); assay: Test B postemergence plant response
How it was run: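 Plants at the 1- to 4-leaf stage (2 to 18 cm tall), grown in pots of peat moss/vermiculite medium with wetting agent and starter nutrients, received postemergence applications of test chemicals. After 13 to 15 days in a greenhouse, injury was rated visually against untreated controls on a 0 (no effect) to 100 (complete control) scale.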

[2] = tested on: pigweed (Amaranthus retroflexus); assay: Test A pre-/postemergence plant response
How it was run: (§1)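 Formulated test chemicals (non-phytotoxic solvent, surfactant) were sprayed onto soil right after planting and simultaneously onto young plants at one to two leaves, 2 to 10 cm tall. Plants stayed in the greenhouse about ten days; injury was then visually scored against untreated controls, from 0 (no effect) to 100 (complete control).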

[3] = tested on: corn (Zea mays); assay: Test A pre-/postemergence plant response
How it was run: as §1

[4] = tested on: wheat (Triticum aestivum); assay: Test A pre-/postemergence plant response
How it was run: as §1

[5] = tested on: giant foxtail (Setaria faberii); assay: Test A pre-/postemergence plant response
How it was run: as §1

[6] = tested on: barnyardgrass (Echinochloa crus-galli); assay: Test A pre-/postemergence plant response
How it was run: as §1

[7] = tested on: velvetleaf (Abutilon theophrasti); assay: Test A pre-/postemergence plant response
How it was run: as §1

[8] = tested on: large crabgrass (Digitaria sanguinalis); assay: Test A pre-/postemergence plant response
How it was run: as §1

[9] = tested on: morningglory (Ipomoea spp.); assay: Test A pre-/postemergence plant response
How it was run: as §1

[10] = tested on: ducksalad (Heteranthera limosa); assay: Test B flooded paddy test; settings: for Plant response rating, Flood, Ducksalad: 250 g ai/ha, flooded paddy test, visual rating on 0 to 100 scale (0 no effect, 100 complete control) after 13 to 15 days; for Plant response rating, Ducksalad: Flood (flooded paddy test), 13 to 15 days
How it was run: (§2)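 Each compound is added to standing floodwater (3 cm above soil, maintained) in pots of 2-leaf-stage plants; greenhouse exposure lasts 13–15 d before visual comparison with controls on a 0–100 control scale.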

[11] = tested on: barnyardgrass (Echinochloa crus-galli); assay: Test B flooded paddy test; settings: for Plant response rating, Flood, Barnyardgrass: 250 g ai/ha, flooded paddy test, visual rating on 0 to 100 scale (0 no effect, 100 complete control) after 13 to 15 days; for Plant response rating, Barnyardgrass: Flood (flooded paddy test), 13 to 15 days
How it was run: as §2

[12] = tested on: umbrella sedge (Cyperus difformis); assay: Test B flooded paddy test; settings: for Plant response rating, Flood, Sedge, Umbrella: 250 g ai/ha, flooded paddy test, visual rating on 0 to 100 scale (0 no effect, 100 complete control) after 13 to 15 days; for Plant response rating, Sedge, Umbrella: Flood (flooded paddy test), 13 to 15 days
How it was run: as §2

[13] = tested on: rice (Oryza sativa); assay: Test B flooded paddy test; settings: for Plant response rating, Flood, Rice: 250 g ai/ha, flooded paddy test, visual rating on 0 to 100 scale (0 no effect, 100 complete control) after 13 to 15 days; for Plant response rating, Rice: Flood (flooded paddy test), 13 to 15 days
How it was run: as §2

[14] = Postemergence, 125 g ai/ha, 0 to 100 scale where 0 is no effect and 100 is complete control
[15] = Postemergence, 500 g ai/ha, 0 to 100 scale, 0 = no effect, 100 = complete control, approx. ten days
[16] = Preemergence, 125 g ai/ha, 0 to 100 scale, 0 = no effect, 100 = complete control
[17] = Preemergence, 500 g ai/ha, visual injury, 0 to 100 scale (0 no effect, 100 complete control), approx. ten days
[18] = 62 g ai/ha, scale of 0 to 100 where 0 is no effect and 100 is complete control
[19] = Postemergence, 125 g ai/ha, visual injury, 0 to 100 scale (0 no effect, 100 complete control), approx. ten days
[20] = 62 g ai/ha, scale 0 to 100, 0 is no effect, 100 is complete control
[21] = Postemergence, 500 g ai/ha, visual injury, 0 to 100 scale (0 no effect, 100 complete control), approx. ten days
[22] = Preemergence, 125 g ai/ha, 0 to 100 scale where 0 is no effect and 100 is complete control, approximately ten days
[23] = Preemergence, 500 g ai/ha, 0 to 100 scale, 0 = no effect, 100 = complete control
[24] = 125 g ai/ha, scale 0 to 100, 0 is no effect, 100 is complete control
[25] = Flood, 31 g ai/ha, scale 0 to 100 (0 no effect, 100 complete control)

COCCn1c(-c2cc(F)cc(F)c2)ncc(C(=O)C2=C(O)CCCC2=O)c1=O [Compound 119]
90: Plant response rating, Foxtail, Giant [5, 15] | Plant response rating, Foxtail, Giant [5, 16] | Plant response rating, Barnyardgrass [6, 15] | Plant response rating, Velvetleaf [7, 16] | Plant response rating, Crabgrass, Large [8, 15] | Plant response rating, Morningglory [9, 14] | Plant response rating, Morningglory [9, 17]
100: Plant response rating, Pigweed [2, 14] | Plant response rating, Pigweed [2, 15] | Plant response rating, Pigweed [2, 16] | Plant response rating, Pigweed [2, 17] | Plant response rating, Foxtail, Giant [5, 17] | Plant response rating, Barnyardgrass [6, 17] | Plant response rating, Velvetleaf [7, 14] | Plant response rating, Velvetleaf [7, 15] | Plant response rating, Velvetleaf [7, 17] | Plant response rating, Crabgrass, Large [8, 16] | Plant response rating, Crabgrass, Large [8, 17] | Plant response rating, Morningglory [9, 15]
35: Plant response rating, Flood, Rice [13]
70: Plant response rating, Corn [3, 15] | Plant response rating, Foxtail, Giant [5, 14] | Plant response rating, Barnyardgrass [6, 16] | Plant response rating, Flood, Ducksalad [10]
60: Plant response rating, Wheat [4, 15] | Plant response rating, Wheat [4, 17] | Plant response rating, Morningglory [9, 16]
80: Plant response rating, Barnyardgrass [6, 14] | Plant response rating, Crabgrass, Large [8, 14]
30: Plant response rating, Corn [3, 17] | Plant response rating, Ducksalad [10, 18] | Plant response rating, Barnyardgrass [11, 18]
0: Plant response rating, Barley ([1]; 31 g ai/ha, postemergence, scale 0 to 100, 0 is no effect, 100 is complete control) | Barley plant response rating (0 to 100 scale) ([1]; 62 g ai/ha, postemergence, 0 is no effect, 100 is complete control, 13 to 15 days) | Plant response rating, Corn [3, 14]
5: Plant response rating, Barley ([1]; Postemergence, 125 g ai/ha, scale 0 to 100 (0 no effect, 100 complete control)) | Plant response rating, Barley ([1]; Postemergence, 250 g ai/ha, scale 0 to 100 (0 no effect, 100 complete control))
20: Plant response rating, Corn [3, 16] | Plant response rating, Wheat [4, 16] | Plant response rating, Rice [13, 18]
50: Plant response rating, Wheat [4, 14] | Plant response rating, Flood, Barnyardgrass [11]
75: Plant response rating, Flood, Sedge, Umbrella [12]
25: Plant response rating, Sedge, Umbrella [12, 18]

Cc1ccc(F)cc1-n1c(-c2ccccc2)ncc(C(=O)C2=C(O)CCCC2=O)c1=O [Compound 44]
70: Plant response rating, Velvetleaf [7, 16] | Plant response rating, Morningglory [9, 17]
40: Plant response rating, Corn [3, 15] | Plant response rating, Flood, Rice [13]
80: Foxtail, Giant plant response rating [5, 19] | Crabgrass, Large plant response rating [8, 19] | Plant response rating, Crabgrass, Large [8, 16] | Morningglory plant response rating [9, 19] | Plant response rating, Ducksalad [10, 20] | Plant response rating, Sedge, Umbrella [12, 20]
20: Plant response rating, Wheat [4, 15] | Plant response rating, Morningglory [9, 16] | Plant response rating, Rice [13, 20]
0: Plant response rating, Barley ([1]; Postemergence, 31 g ai/ha, scale 0 to 100 (0 no effect, 100 complete control)) | Plant response rating, Barley ([1]; Postemergence, 62 g ai/ha, scale 0 (no effect) to 100 (complete control), 13 to 15 days) | Corn plant response rating [3, 19] | Plant response rating, Corn [3, 16] | Plant response rating, Corn [3, 17] | Wheat plant response rating [4, 19] | Plant response rating, Wheat [4, 16] | Plant response rating, Wheat [4, 17] | Plant response rating, Barnyardgrass [11, 20]
15: Barley plant response rating ([1]; Postemergence, 250 g ai/ha, scale 0 to 100)
100: Pigweed plant response rating [2, 19] | Plant response rating, Pigweed [2, 15] | Plant response rating, Barnyardgrass [6, 15] | Plant response rating, Barnyardgrass [6, 17] | Velvetleaf plant response rating [7, 19] | Plant response rating, Velvetleaf [7, 15] | Plant response rating, Velvetleaf [7, 17]
5: Plant response rating, Barley ([1]; Postemergence, 125 g ai/ha, visual rating after 13 to 15 days, scale 0 (no effect) to 100 (complete control))
30: Plant response rating, Foxtail, Giant [5, 16] | Plant response rating, Barnyardgrass [6, 16] | Plant response rating, Flood, Barnyardgrass [11]
60: Plant response rating, Pigweed [2, 16]
90: Plant response rating, Pigweed [2, 17] | Plant response rating, Foxtail, Giant [5, 15] | Plant response rating, Foxtail, Giant [5, 17] | Barnyardgrass plant response rating [6, 19] | Plant response rating, Crabgrass, Large [8, 15] | Plant response rating, Crabgrass, Large [8, 17] | Plant response rating, Morningglory [9, 15] | Plant response rating, Flood, Ducksalad [10] | Plant response rating, Flood, Sedge, Umbrella [12]

CCc1ccccc1-n1c(-c2ccccc2)ncc(C(=O)C2=C(O)CCCC2=O)c1=O [Compound 255]
60: Plant response rating, Velvetleaf [7, 22] | Plant response rating, Morningglory [9, 23] | Plant response rating, Ducksalad [10, 24] | Plant response rating, Flood, Sedge, Umbrella [12]
0: Plant response rating, Corn [3, 22] | Plant response rating, Corn [3, 23] | Plant response rating, Wheat [4, 22] | Plant response rating, Wheat [4, 23] | Plant response rating, Foxtail, Giant [5, 22] | Ducksalad plant response rating [10, 25] | Plant response rating, Flood, Barnyardgrass [11] | Plant response rating, Barnyardgrass [11, 18] | Plant response rating, Barnyardgrass [11, 24] | Barnyardgrass plant response rating [11, 25] | Sedge, Umbrella plant response rating [12, 25] | Plant response rating, Flood, Rice [13] | Plant response rating, Rice [13, 18] | Plant response rating, Rice [13, 24] | Rice plant response rating [13, 25]
35: Plant response rating, Barley ([1]; Postemergence, 62 g ai/ha, scale 0 to 100 (0 no effect, 100 complete control)) | Plant response rating, Barley ([1]; Postemergence, 125 g ai/ha, scale 0 (no effect) to 100 (complete control), 13 to 15 days)
10: Plant response rating, Wheat [4, 19] | Plant response rating, Barnyardgrass [6, 22]
20: Plant response rating, Crabgrass, Large [8, 22] | Plant response rating, Sedge, Umbrella [12, 18]
30: Plant response rating, Barley ([1]; Postemergence, 31 g ai/ha, 0 to 100 scale (0 no effect, 100 complete control)) | Plant response rating, Corn [3, 14]
70: Plant response rating, Pigweed [2, 22] | Corn plant response rating [3, 21]
90: Plant response rating, Pigweed [2, 19] | Plant response rating, Pigweed [2, 23] | Plant response rating, Foxtail, Giant [5, 19] | Foxtail, Giant plant response rating [5, 21] | Plant response rating, Barnyardgrass [6, 14] | Plant response rating, Crabgrass, Large [8, 14] | Plant response rating, Crabgrass, Large [8, 23]
100: Pigweed plant response rating [2, 21] | Barnyardgrass plant response rating [6, 21] | Plant response rating, Barnyardgrass [6, 23] | Plant response rating, Velvetleaf [7, 19] | Velvetleaf plant response rating [7, 21] | Plant response rating, Velvetleaf [7, 23] | Crabgrass, Large plant response rating [8, 21] | Plant response rating, Morningglory [9, 19] | Morningglory plant response rating [9, 21]
80: Plant response rating, Flood, Ducksalad [10]
40: Plant response rating, Morningglory [9, 22]
50: Plant response rating, Barley ([1]; Postemergence, 250 g ai/ha, scale 0 to 100 (0 no effect, 100 complete control), 13 to 15 days) | Wheat plant response rating [4, 21] | Plant response rating, Foxtail, Giant [5, 23] | Plant response rating, Ducksalad [10, 18] | Plant response rating, Sedge, Umbrella [12, 24]
